In assay [1] the target is T1, Zinc finger protein mex-5 (Caenorhabditis elegans, UniProt Q9XUB2).
T1 sequence (Q9XUB2 whole entry): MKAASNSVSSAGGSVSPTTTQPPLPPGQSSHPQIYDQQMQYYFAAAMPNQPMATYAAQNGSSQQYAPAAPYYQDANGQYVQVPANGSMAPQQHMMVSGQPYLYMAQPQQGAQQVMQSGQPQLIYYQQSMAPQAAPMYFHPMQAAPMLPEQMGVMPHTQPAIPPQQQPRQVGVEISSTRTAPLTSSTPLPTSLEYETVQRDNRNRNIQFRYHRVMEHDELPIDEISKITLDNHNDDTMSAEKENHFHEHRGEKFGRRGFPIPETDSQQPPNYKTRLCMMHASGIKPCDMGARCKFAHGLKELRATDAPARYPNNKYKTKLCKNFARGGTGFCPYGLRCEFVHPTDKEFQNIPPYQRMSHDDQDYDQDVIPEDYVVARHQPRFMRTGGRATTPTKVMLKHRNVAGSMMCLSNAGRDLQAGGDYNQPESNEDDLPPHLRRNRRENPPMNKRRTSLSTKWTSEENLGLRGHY
Briefly: MEX-5/TCR-2 RNA interaction inhibitors, dose response, biochemical, C. elegans, fluorescence polarization (AID 1960).

Assay [2] has as its target T2, RNA-binding protein pos-1 (Caenorhabditis elegans, UniProt G5EF15).
T2 sequence (G5EF15 whole entry): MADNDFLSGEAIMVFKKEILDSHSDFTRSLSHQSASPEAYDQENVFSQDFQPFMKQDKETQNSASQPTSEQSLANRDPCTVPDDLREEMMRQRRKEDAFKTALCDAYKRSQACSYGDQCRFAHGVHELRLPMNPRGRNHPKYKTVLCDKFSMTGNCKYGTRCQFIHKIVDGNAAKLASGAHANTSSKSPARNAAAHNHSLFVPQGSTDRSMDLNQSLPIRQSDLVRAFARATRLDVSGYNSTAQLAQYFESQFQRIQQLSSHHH
Briefly: inhibitors of POS-1/mex-3 RNA binding, dose response, biochemical, fluorescence polarization (AID 1964).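 Also: purified POS-1 fused to maltose binding protein made in E. coli; potency of compounds blocking POS-1 binding to fluorescent RNA.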 On the technique in general: Polarisation of emitted light reports the rotation of a fluorescent probe.

Assay [3] has as its target T3, Replicative DNA helicase DnaB (Mycobacterium tuberculosis, UniProt P9WMR3).
T3 sequence (P9WMR3 whole entry): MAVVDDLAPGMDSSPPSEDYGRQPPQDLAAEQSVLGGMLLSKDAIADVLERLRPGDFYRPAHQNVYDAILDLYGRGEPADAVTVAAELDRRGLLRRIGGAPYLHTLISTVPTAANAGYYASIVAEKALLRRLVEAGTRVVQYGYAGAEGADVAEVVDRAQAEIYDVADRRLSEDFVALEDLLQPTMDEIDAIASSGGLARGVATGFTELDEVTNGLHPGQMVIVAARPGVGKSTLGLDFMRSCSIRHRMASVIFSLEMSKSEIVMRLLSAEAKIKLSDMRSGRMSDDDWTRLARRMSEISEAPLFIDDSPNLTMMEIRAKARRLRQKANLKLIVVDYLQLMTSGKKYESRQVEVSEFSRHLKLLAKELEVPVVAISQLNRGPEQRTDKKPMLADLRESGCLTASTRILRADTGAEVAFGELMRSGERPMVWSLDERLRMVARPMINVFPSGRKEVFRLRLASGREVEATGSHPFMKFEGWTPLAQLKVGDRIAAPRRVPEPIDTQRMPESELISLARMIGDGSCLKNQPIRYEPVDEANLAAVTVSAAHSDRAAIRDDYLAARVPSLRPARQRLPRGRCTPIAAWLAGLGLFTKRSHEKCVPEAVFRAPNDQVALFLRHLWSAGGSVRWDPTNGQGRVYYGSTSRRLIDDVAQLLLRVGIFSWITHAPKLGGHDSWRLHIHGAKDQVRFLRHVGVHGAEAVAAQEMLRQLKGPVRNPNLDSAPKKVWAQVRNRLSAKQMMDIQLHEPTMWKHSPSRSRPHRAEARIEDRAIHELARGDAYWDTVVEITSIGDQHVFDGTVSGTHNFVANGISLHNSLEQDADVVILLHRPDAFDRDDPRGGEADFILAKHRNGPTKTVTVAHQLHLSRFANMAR
Briefly: DnaB intein splicing inhibitors, dose response, biochemical, cell-free fluorescence (AID 449749). The assay is classed as functional.

The target in assay [4] is T4, Protein RecA (Mycobacterium tuberculosis, UniProt P9WHJ3).
T4 sequence (P9WHJ3 whole entry): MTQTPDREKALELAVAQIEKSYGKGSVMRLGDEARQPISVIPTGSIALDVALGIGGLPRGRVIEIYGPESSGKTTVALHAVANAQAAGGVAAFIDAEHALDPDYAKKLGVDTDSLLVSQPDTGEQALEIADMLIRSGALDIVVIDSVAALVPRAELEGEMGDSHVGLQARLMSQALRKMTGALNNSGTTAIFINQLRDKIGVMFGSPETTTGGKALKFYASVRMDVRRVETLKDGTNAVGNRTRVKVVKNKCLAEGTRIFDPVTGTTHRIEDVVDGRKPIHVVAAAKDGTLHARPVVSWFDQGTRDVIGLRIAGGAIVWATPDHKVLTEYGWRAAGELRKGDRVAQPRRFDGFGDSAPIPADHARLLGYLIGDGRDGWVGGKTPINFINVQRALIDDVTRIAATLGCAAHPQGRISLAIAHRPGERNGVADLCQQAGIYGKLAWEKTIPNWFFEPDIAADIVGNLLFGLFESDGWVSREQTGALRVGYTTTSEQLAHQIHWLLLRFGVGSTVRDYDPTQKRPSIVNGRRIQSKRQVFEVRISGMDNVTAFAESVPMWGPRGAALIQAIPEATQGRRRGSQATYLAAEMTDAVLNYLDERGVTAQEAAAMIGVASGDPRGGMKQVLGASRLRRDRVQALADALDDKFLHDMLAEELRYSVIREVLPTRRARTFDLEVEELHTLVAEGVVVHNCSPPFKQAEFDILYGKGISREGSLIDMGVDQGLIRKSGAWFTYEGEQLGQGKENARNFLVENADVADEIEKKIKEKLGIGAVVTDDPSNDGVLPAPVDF
Briefly: Fluorescence Cell-Free Homogeneous Dose Retest to Identify Inhibitors of RecA-Intein Splicing Activity. [Related pubchem assays (depositor defined):AID2097, AID2223, AID489010, AID492950]. Format: functional.

Assay [5] has as its target T5, Heat shock factor protein 1 (Mus musculus, UniProt P38532).
T5 sequence (P38532 whole entry): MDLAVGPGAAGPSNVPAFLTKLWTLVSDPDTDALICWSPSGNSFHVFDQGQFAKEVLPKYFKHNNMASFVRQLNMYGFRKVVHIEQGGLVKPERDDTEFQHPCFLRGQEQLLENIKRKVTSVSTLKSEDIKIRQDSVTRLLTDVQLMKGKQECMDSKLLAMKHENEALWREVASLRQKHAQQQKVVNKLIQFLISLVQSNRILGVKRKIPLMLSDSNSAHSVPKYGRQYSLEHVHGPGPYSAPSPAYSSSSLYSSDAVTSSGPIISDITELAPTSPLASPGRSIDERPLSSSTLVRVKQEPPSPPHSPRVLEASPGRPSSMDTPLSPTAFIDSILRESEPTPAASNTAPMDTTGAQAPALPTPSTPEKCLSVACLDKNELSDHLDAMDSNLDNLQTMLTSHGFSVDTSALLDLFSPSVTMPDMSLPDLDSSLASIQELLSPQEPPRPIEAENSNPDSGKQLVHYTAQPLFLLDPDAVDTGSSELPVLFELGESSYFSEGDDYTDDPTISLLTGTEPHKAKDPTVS
Briefly: inhibition of MG132-induced HSE-luciferase signal, confirmation, cell-based, NIH3T3, luminescence, dose retest (AID 2382).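 Also: NIH3T3 fibroblasts with HSF1-driven luciferase reporter stressed by proteasome inhibitor MG132; luminescence from HSF1-driven luciferase expression after 8 hours of MG132 stress.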 The assay is classed as functional.

A short description of assay [6]: C. albicans growth with fluconazole, confirmation, fluorescence, retest (AID 2467). The assay is classed as functional, cell-based.
The nature of assay [7]: NIH-3T3 fibroblast cytotoxicity, dose response, cytotoxicity control, cell-based, fluorescence, Alamar Blue, secondary assay (AID 2327).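 Also: NIH-3T3 mouse fibroblasts cultured with fluconazole at 8 µg/mL.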 The assay is classed as functional.
In assay [8] the target is Cytochrome P450 2D6 (Homo sapiens, UniProt P10635).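 Also: CYP2D6 member of a cytochrome P450 panel assay.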
Sequence of Cytochrome P450 2D6 (P10635 whole entry): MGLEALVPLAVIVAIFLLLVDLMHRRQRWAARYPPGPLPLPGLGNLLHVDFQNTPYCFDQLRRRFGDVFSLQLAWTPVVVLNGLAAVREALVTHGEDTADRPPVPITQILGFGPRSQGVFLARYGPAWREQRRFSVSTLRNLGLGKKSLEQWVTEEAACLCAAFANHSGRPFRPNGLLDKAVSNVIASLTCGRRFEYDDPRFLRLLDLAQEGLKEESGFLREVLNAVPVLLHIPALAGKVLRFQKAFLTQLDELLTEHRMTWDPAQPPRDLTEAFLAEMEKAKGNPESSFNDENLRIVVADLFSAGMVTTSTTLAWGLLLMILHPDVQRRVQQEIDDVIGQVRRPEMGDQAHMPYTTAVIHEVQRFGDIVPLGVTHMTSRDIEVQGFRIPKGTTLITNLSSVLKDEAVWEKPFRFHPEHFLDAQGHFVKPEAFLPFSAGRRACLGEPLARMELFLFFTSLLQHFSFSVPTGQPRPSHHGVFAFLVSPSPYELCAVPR
The target in assay [9] is Cytochrome P450 2C9 (Homo sapiens, UniProt P11712).
Sequence of Cytochrome P450 2C9 (P11712 whole entry): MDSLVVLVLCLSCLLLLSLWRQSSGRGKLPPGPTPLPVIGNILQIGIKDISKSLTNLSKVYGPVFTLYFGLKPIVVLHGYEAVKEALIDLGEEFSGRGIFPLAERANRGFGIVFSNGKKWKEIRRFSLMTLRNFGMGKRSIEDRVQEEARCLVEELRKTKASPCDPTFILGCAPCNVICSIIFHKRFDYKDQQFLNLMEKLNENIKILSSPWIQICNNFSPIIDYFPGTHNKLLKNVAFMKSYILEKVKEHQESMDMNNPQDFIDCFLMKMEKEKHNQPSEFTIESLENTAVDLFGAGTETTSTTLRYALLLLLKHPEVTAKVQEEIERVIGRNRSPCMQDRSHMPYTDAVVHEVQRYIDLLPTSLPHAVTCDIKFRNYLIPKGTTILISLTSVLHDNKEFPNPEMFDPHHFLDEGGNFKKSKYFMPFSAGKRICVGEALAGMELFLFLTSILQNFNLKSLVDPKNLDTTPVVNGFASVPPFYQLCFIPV
Assay [10] addresses Cytochrome P450 2C19 (Homo sapiens, UniProt P33261). Briefly: Cytochrome panel assay with activity outcomes. Panel member name: p450-cyp2c19 Compounds with AC50 equal or less than 10 uM are considered active. The assay is classed as functional. The conditions noted are these: read-out: AC50.
Assay [11] deals with FAD-linked sulfhydryl oxidase ALR (Homo sapiens, UniProt P55789). Briefly: inhibitors of human ALR sulfhydryl oxidase, dose response, biochemical, H2O2 detection, luminescence, cherry-pick (AID 493248).
Sequence of FAD-linked sulfhydryl oxidase ALR (P55789 whole entry): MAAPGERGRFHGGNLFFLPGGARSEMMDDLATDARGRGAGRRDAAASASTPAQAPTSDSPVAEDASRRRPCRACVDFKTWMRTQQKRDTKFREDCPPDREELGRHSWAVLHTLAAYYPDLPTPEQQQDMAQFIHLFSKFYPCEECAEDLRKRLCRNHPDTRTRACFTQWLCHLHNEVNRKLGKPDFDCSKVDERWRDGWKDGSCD
The nature of assay [12]: HEp-2 cell cytotoxicity, dose response, cytotoxicity control for RSV inhibitor project, HTS (AID 2410). Format: functional. The conditions noted are these: human respiratory syncytial virus.
Assay [13] concerns the target Paired box protein Pax-8 (Homo sapiens, UniProt Q06710). Briefly: inhibitors of PAX8-driven TPO luciferase reporter, dose response, RMG-I cells, cherry-pick (AID 687027).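 Also: luciferase reporter driven by Pax8 target thyroperoxidase promoter measured by SteadyGlo luminescence.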 The assay is classed as functional, cell-based. (A reporter such as luciferase makes a cellular process visible.)

The source made the active and inactive calls.

Sequence of Cytochrome P450 2C19 (P33261 whole entry): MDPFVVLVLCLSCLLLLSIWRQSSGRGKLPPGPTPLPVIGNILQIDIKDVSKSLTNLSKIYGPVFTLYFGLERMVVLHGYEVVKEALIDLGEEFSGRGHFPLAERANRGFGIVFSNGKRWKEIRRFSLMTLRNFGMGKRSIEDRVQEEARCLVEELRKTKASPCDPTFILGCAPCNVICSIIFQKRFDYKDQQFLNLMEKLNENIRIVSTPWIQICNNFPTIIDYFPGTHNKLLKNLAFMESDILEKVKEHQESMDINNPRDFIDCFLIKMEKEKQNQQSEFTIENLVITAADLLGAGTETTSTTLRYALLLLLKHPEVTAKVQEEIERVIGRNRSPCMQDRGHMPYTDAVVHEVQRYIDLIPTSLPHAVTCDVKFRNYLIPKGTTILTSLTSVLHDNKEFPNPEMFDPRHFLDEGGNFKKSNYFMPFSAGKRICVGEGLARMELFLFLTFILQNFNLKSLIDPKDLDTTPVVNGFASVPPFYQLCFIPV
Sequence of Paired box protein Pax-8 (Q06710 whole entry): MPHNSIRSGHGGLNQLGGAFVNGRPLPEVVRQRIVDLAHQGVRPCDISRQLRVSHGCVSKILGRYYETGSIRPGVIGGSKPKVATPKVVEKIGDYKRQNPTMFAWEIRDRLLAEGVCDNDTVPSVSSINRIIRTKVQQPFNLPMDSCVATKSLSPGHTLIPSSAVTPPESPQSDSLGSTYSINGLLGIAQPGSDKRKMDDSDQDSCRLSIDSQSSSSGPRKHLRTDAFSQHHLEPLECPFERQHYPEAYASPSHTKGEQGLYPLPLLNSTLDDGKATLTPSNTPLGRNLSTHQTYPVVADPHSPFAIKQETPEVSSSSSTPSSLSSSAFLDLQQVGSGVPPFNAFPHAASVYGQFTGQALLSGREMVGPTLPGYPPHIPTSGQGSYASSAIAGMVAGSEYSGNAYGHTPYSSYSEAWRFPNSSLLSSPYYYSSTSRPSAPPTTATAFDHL

Regarding `CCCCC1=CC2=C(c3ccco3)C(=O)C(C)(OC(=O)c3ccc(OC)cc3)C(=O)C2=CN1C1CC1` (centres undefined), the EC50 in assay [1] and in assay [2] was > 300 µM (not active) throughout. Take `CCc1cc(=O)oc2cc(C)cc(OC(C)C(=O)O)c12` (centres undefined): the concentration giving a half-maximal response (EC50) in assay [1] and in [2] was > 300 µM (not active) in each case. Take `N#CC(C#N)=NNc1ccc(S(=O)(=O)N2CCCC2)cc1`: the AC50 (commonly the midpoint of the concentration-response curve, whichever way the signal moves) in assay [3] was 6.9 µM (active). Moreover, the concentration for a half-maximal effect (EC50) – broadly, the concentration at which the effect is half-maximal – in assay [4] is 23.9 µM (active).

Turning to `CC1=NN(c2ccccc2)C(=O)C1N=Nc1ccc(S(N)(=O)=O)cc1` (centres undefined), the EC50 in assay [5] is on record as > 195 µM (not active). Turning to `COc1ccc(-c2cc(-c3c(O)c(OC)c4occc4c3OC)[nH]n2)cc1OC`, the 50% effective concentration (EC50) in [6] was > 38 µM (not active); in assay [7], > 160 µM (inactive). Besides, the AC50 in [8] is 25.1 µM (inconclusive); in assay [9], 39.8 µM (inconclusive). Consider `Cn1c(=O)cc(OCCCC(=O)Nc2cccnc2)c2ccccc21`, for which the concentration giving a half-maximal response (EC50) in assay [6] was > 38 µM (not active); in assay [7], > 160 µM (inactive). Further, the AC50 in [10] is 20 µM (inconclusive); in assay [8], 10 µM (inconclusive). `O=C(CSc1nnc(COc2ccc3c(c2)CCCC3)o1)Nc1ccc(F)cc1`: the EC50 in assay [5] is on record as > 195 µM (not active).

In the case of `O=C(N1CCOCC1)N1CCC(n2nnc3cc(F)ccc32)CC1`, the EC50 in assay [1] is 46.7 µM (inconclusive); in assay [2], 39.2 µM (active).

As for `COc1cc(SC)ccc1C(=O)NCC1CCCO1` (centres undefined), the EC50 in assay [5] is recorded as > 195 µM (not active). `COC(CN(C(=O)CCl)C(C(=O)NC1CCCCC1)c1ccc(C)cc1)OC` (centres undefined): the AC50 in [3] is > 380 µM (inactive). Further, the concentration giving a half-maximal response (EC50) in [4] was 7 µM (active).

In the case of `CCN(CC)c1ccc(C=C2C(=O)OC(C)(C(C)(C)C)OC2=O)cc1` (centres undefined), the EC50 in assay [1] and in assay [2] was > 300 µM (inconclusive) throughout. As to `O=C(NNc1cccc(Cl)c1)c1cccnc1Cl`, the AC50 in assay [11] was 4.14 µM (active). The EC50 in [6] was > 38 µM (not active); in [7], 24.8 µM (active). As for `CC(c1ccc(O)cc1)(c1ccc(O)cc1)c1ccc(CCBr)cc1`, in assay [12], the CC50 (as a rule, the concentration at which the toxic effect on the cells reaches its halfway point) was 17.4 µM (active). Further, the AC50 in assay [3] is 46.4 µM (active). Moreover, the concentration for a half-maximal effect (EC50) in assay [4] was 9.45 µM (active).

As to `CCOC(=O)c1cnc2ccc(C)cc2c1Sc1ccccc1`, in [3], the concentration at half-maximal activity (AC50) is 5.63 µM (active). The EC50 in assay [4] is 5.87 µM (active).

For the molecule `CC1(C)CC(=O)C2=C(C1)N(Cc1ccccc1)C(=O)C2(NC(=O)C(C)(C)C)C(F)(F)F` (centres undefined), the EC50 in [5] is > 195 µM (not active). On to `COc1ccc(Nc2nc3ccccc3nc2NS(=O)(=O)c2cccs2)cc1`, for which the figures for the EC50 in assay [1] and in assay [2] were 34.8 µM (active) and > 300 µM (inconclusive), respectively. On the same counts, the results for `COc1cc2c(cc1/C=C1/NC(=O)N(c3ccccc3)C1=O)OCO2` are > 300 µM (not active) and > 300 µM (not active). For `Cc1c(C(=O)Nc2ccc(F)cc2)sc2ncn(CC(=O)N3CCCCC3)c(=O)c12`, the EC50 in assay [5] was > 195 µM (not active). Take `COc1ccc(Cl)cc1NC(=O)CSc1nc2ccsc2c(=O)n1CC1CCC(C(=O)O)CC1` (centres undefined): the 50% cytotoxic concentration (CC50) in [12] is > 50 µM (active). Besides, in [5], the concentration giving a half-maximal response (EC50) is > 195 µM (not active). For `Cc1ccc(S(=O)(=O)N(C)C[C@H]2Oc3ccc(NC(=O)Nc4ccc(C(F)(F)F)cc4)cc3CC(=O)N([C@@H](C)CO)C[C@H]2C)cc1`, the half-maximal activity concentration (AC50) in assay [13] is 9.45 µM (active). Take `CCOc1ccc(/C=N/NC(=O)c2ccc(Cn3cc([N+](=O)[O-])cn3)o2)cc1`: the EC50 in assay [5] is on record as > 195 µM (not active). `Cc1ccc(/C=N/NC(=O)c2nnn(-c3nonc3N)c2CN(C)C2CCCCC2)cc1`: the 50% effective concentration (EC50) in assay [5] is > 195 µM (not active).

Regarding `Cc1ccc(NCC(=O)N/N=C/c2ccc(C(=O)O)cc2)cc1`, the EC50 in [1] and in assay [2] was > 300 µM (not active) each time.

These data come from ChEMBL document CHEMBL1201862, “PubChem BioAssay data set” (2004).
